Measured values: US20200032271A1, “COMBINATION THERAPY WITH LIPOSOMAL ANTISENSE OLIGONUCLEOTIDES” (Bio-Path Holdings, Inc., priority 2016, published 2020)
[PEt] = P-ethoxy (ethyl phosphotriester) internucleoside linkage

Experiment: Adverse events in study 2003-0578 (NCI CTCAE grading)
From the text: Each participant who receives study drug will be closely monitored for AEs. An AE is any untoward medical occurrence associated with the use of a drug in humans, whether or not considered drug related. Adverse events include any signs, symptoms, illnesses, or diagnoses that appear or worsen during the course of the study. An AE may be an intercurrent illness, an injury, or any concomitant impairment of the participant's health. All AEs occurring at any time from the time of consent through the end of treatment visit will be reported regardless of the etiology of the event. The NCI's CTCAE v4.03 will be used for grading AEs.
The causal relationship to BP1001 IP or Das for all AEs will be assessed as follows: (1) definitely related—AEs clearly attributable to study regimen administration; (2) probably related—AEs for which there is a reasonable possibility of causal association to study regimen; (3) possibly related—AEs for which there is confounding by comorbidities, medications or other considerations but for which it is not unreasonable that the AE may have been caused by study regimen; or (4) not related—AEs that are considered clearly not causally related to study regimen, or for which there is a clear alternative explanation

With “BP1001: liposome-incorporated P-ethoxy antisense oligodeoxynucleotide (5′-ATATTTGGCGATGGCTTC-3′, SEQ ID NO: 1) specific to grb2 mRNA, in neutral DOPC liposomes (DNA, all [PEt], methylation of C not given here; incorporated in neutral DOPC liposomes)” the “Hypovolemia ≥Grade 3, number of patients” value (monotherapy 10 mg/m^2 (n = 6)) was 0, the “Hypoxia ≥Grade 3, number of patients” value (monotherapy 10 mg/m^2 (n = 6)) was 1 and the “Investigations ≥Grade 3, number of patients” value (monotherapy 10 mg/m^2 (n = 6)) was 0. For the same substance, the “Leukocytosis ≥Grade 3, number of patients” value (monotherapy 10 mg/m^2 (n = 6)) was 2, the “Metabolism and nutritional disorders ≥Grade 3, number of patients” value (monotherapy 10 mg/m^2 (n = 6)) was 3 and the “Multi-organ failure ≥Grade 3, number of patients” value (monotherapy 10 mg/m^2 (n = 6)) was 1. For the same substance, the “Neoplasms benign, malignant, and unspecified (incl. cysts and polyps) ≥Grade 3, number of patients” value (shortened to “Neoplasms benign, malignant”) (monotherapy 10 mg/m^2 (n = 6)) was 1, the “Patients with AEs ≥Grade 3, number of patients” value (monotherapy 10 mg/m^2 (n = 6)) was 4 and the “Penile Pain ≥Grade 3, number of patients” value (monotherapy 10 mg/m^2 (n = 6)) was 0. For the same substance, the “Platelet count decreased ≥Grade 3, number of patients” value (monotherapy 10 mg/m^2 (n = 6)) was 0, the “Pneumonia ≥Grade 3, number of patients” value (monotherapy 10 mg/m^2 (n = 6)) was 2 and the “Psychiatric disorders ≥Grade 3, number of patients” value (monotherapy 10 mg/m^2 (n = 6)) was 0. The “Renal and urinary disorders ≥Grade 3, number of patients” value (monotherapy 10 mg/m^2 (n = 6)) was 0, the “Reproductive system and breast disorders ≥Grade 3, number of patients” value (monotherapy 10 mg/m^2 (n = 6)) was 0 and the “Respiratory distress ≥Grade 3, number of patients” value (monotherapy 10 mg/m^2 (n = 6)) was 2. For the same substance, the “Respiratory failure ≥Grade 3, number of patients” value (monotherapy 10 mg/m^2 (n = 6)) was 1, the “Respiratory, thoracic, and mediastinal disorders ≥Grade 3, number of patients” value (shortened to “Respiratory, thoracic”) (monotherapy 10 mg/m^2 (n = 6)) was 3 and the “Tumor lysis syndrome ≥Grade 3, number of patients” value (monotherapy 10 mg/m^2 (n = 6)) was 0. The “Vascular disorders ≥Grade 3, number of patients” value (monotherapy 10 mg/m^2 (n = 6)) was 0, the “AML progression, number of patients” value (monotherapy 20 mg/m^2 (n = 3)) was 1 and the “Abdominal Pain ≥Grade 3, number of patients” value (monotherapy 20 mg/m^2 (n = 3)) was 0. The “Acidosis ≥Grade 3, number of patients” value (monotherapy 20 mg/m^2 (n = 3)) was 0, the “Acute kidney injury ≥Grade 3, number of patients” value (monotherapy 20 mg/m^2 (n = 3)) was 0 and the “Asthenia ≥Grade 3, number of patients” value (monotherapy 20 mg/m^2 (n = 3)) was 0. The “Back Pain ≥Grade 3, number of patients” value (monotherapy 20 mg/m^2 (n = 3)) was 0, the “Blood and lymphatic system disorders ≥Grade 3, number of patients” value (monotherapy 20 mg/m^2 (n = 3)) was 1 and the “Cardiac disorders ≥Grade 3, number of patients” value (monotherapy 20 mg/m^2 (n = 3)) was 0. For the same substance, the “Cataract ≥Grade 3, number of patients” value (monotherapy 20 mg/m^2 (n = 3)) was 0, the “Dyspnea ≥Grade 3, number of patients” value (monotherapy 20 mg/m^2 (n = 3)) was 0 and the “Extremity Lower Edema ≥Grade 3, number of patients” value (monotherapy 20 mg/m^2 (n = 3)) was 0. The “Eye disorders ≥Grade 3, number of patients” value (monotherapy 20 mg/m^2 (n = 3)) was 0, the “Febrile neutropenia ≥Grade 3, number of patients” value (monotherapy 20 mg/m^2 (n = 3)) was 0 and the “Gastrointestinal disorders ≥Grade 3, number of patients” value (monotherapy 20 mg/m^2 (n = 3)) was 0. The “General disorders and administration site conditions ≥Grade 3, number of patients” value (monotherapy 20 mg/m^2 (n = 3)) was 0, the “Hallucinations ≥Grade 3, number of patients” value (monotherapy 20 mg/m^2 (n = 3)) was 0 and the “Heart failure ≥Grade 3, number of patients” value (monotherapy 20 mg/m^2 (n = 3)) was 0. The “Hepatic failure ≥Grade 3, number of patients” value (monotherapy 20 mg/m^2 (n = 3)) was 0, the “Hepatobiliary disorders ≥Grade 3, number of patients” value (monotherapy 20 mg/m^2 (n = 3)) was 0 and the “Hypocalcemia ≥Grade 3, number of patients” value (monotherapy 20 mg/m^2 (n = 3)) was 0. For the same substance, the “Hypoglycemia ≥Grade 3, number of patients” value (monotherapy 20 mg/m^2 (n = 3)) was 0, the “Hypokalemia ≥Grade 3, number of patients” value (monotherapy 20 mg/m^2 (n = 3)) was 0 and the “Hyponatremia ≥Grade 3, number of patients” value (monotherapy 20 mg/m^2 (n = 3)) was 0. For the same substance, the “Hypotension ≥Grade 3, number of patients” value (monotherapy 20 mg/m^2 (n = 3)) was 0, the “Hypovolemia ≥Grade 3, number of patients” value (monotherapy 20 mg/m^2 (n = 3)) was 0 and the “Hypoxia ≥Grade 3, number of patients” value (monotherapy 20 mg/m^2 (n = 3)) was 0. The “Investigations ≥Grade 3, number of patients” value (monotherapy 20 mg/m^2 (n = 3)) was 0, the “Leukocytosis ≥Grade 3, number of patients” value (monotherapy 20 mg/m^2 (n = 3)) was 1 and the “Metabolism and nutritional disorders ≥Grade 3, number of patients” value (monotherapy 20 mg/m^2 (n = 3)) was 0. The “Multi-organ failure ≥Grade 3, number of patients” value (monotherapy 20 mg/m^2 (n = 3)) was 0, the “Musculoskeletal and connective tissue disorders ≥Grade 3, number of patients” value (monotherapy 20 mg/m^2 (n = 3)) was 0 and the “Neoplasms benign, malignant” value (monotherapy 20 mg/m^2 (n = 3)) was 0. For the same substance, the “Patients with AEs ≥Grade 3, number of patients” value (monotherapy 20 mg/m^2 (n = 3)) was 1, the “Penile Pain ≥Grade 3, number of patients” value (monotherapy 20 mg/m^2 (n = 3)) was 0 and the “Platelet count decreased ≥Grade 3, number of patients” value (monotherapy 20 mg/m^2 (n = 3)) was 0. For the same substance, the “Pneumonia ≥Grade 3, number of patients” value (monotherapy 20 mg/m^2 (n = 3)) was 0, the “Psychiatric disorders ≥Grade 3, number of patients” value (monotherapy 20 mg/m^2 (n = 3)) was 0 and the “Renal and urinary disorders ≥Grade 3, number of patients” value (monotherapy 20 mg/m^2 (n = 3)) was 0. For the same substance, the “Reproductive system and breast disorders ≥Grade 3, number of patients” value (monotherapy 20 mg/m^2 (n = 3)) was 0, the “Respiratory distress ≥Grade 3, number of patients” value (monotherapy 20 mg/m^2 (n = 3)) was 0 and the “Respiratory failure ≥Grade 3, number of patients” value (monotherapy 20 mg/m^2 (n = 3)) was 0. For the same substance, the “Respiratory, thoracic” value (monotherapy 20 mg/m^2 (n = 3)) was 0, the “Tumor lysis syndrome ≥Grade 3, number of patients” value (monotherapy 20 mg/m^2 (n = 3)) was 0 and the “Vascular disorders ≥Grade 3, number of patients” value (monotherapy 20 mg/m^2 (n = 3)) was 0. The “AML progression, number of patients” value (monotherapy 40 mg/m^2 (n = 3)) was 3, the “Abdominal Pain ≥Grade 3, number of patients” value (monotherapy 40 mg/m^2 (n = 3)) was 0 and the “Acidosis ≥Grade 3, number of patients” value (monotherapy 40 mg/m^2 (n = 3)) was 0. The “Acute kidney injury ≥Grade 3, number of patients” value (monotherapy 40 mg/m^2 (n = 3)) was 1, the “Asthenia ≥Grade 3, number of patients” value (monotherapy 40 mg/m^2 (n = 3)) was 0 and the “Back Pain ≥Grade 3, number of patients” value (monotherapy 40 mg/m^2 (n = 3)) was 0. The “Blood and lymphatic system disorders ≥Grade 3, number of patients” value (monotherapy 40 mg/m^2 (n = 3)) was 1, the “Cardiac disorders ≥Grade 3, number of patients” value (monotherapy 40 mg/m^2 (n = 3)) was 0 and the “Cataract ≥Grade 3, number of patients” value (monotherapy 40 mg/m^2 (n = 3)) was 0. For the same substance, the “Dyspnea ≥Grade 3, number of patients” value (monotherapy 40 mg/m^2 (n = 3)) was 1, the “Extremity Lower Edema ≥Grade 3, number of patients” value (monotherapy 40 mg/m^2 (n = 3)) was 0 and the “Eye disorders ≥Grade 3, number of patients” value (monotherapy 40 mg/m^2 (n = 3)) was 0. The “Febrile neutropenia ≥Grade 3, number of patients” value (monotherapy 40 mg/m^2 (n = 3)) was 0, the “Gastrointestinal disorders ≥Grade 3, number of patients” value (monotherapy 40 mg/m^2 (n = 3)) was 0 and the “General disorders and administration site conditions ≥Grade 3, number of patients” value (monotherapy 40 mg/m^2 (n = 3)) was 0. For the same substance, the “Hallucinations ≥Grade 3, number of patients” value (monotherapy 40 mg/m^2 (n = 3)) was 0, the “Heart failure ≥Grade 3, number of patients” value (monotherapy 40 mg/m^2 (n = 3)) was 0 and the “Hepatic failure ≥Grade 3, number of patients” value (monotherapy 40 mg/m^2 (n = 3)) was 0. For the same substance, the “Hepatobiliary disorders ≥Grade 3, number of patients” value (monotherapy 40 mg/m^2 (n = 3)) was 0, the “Hypocalcemia ≥Grade 3, number of patients” value (monotherapy 40 mg/m^2 (n = 3)) was 0 and the “Hypoglycemia ≥Grade 3, number of patients” value (monotherapy 40 mg/m^2 (n = 3)) was 0. The “Hypokalemia ≥Grade 3, number of patients” value (monotherapy 40 mg/m^2 (n = 3)) was 1, the “Hyponatremia ≥Grade 3, number of patients” value (monotherapy 40 mg/m^2 (n = 3)) was 0 and the “Hypotension ≥Grade 3, number of patients” value (monotherapy 40 mg/m^2 (n = 3)) was 0. For the same substance, the “Hypovolemia ≥Grade 3, number of patients” value (monotherapy 40 mg/m^2 (n = 3)) was 0, the “Hypoxia ≥Grade 3, number of patients” value (monotherapy 40 mg/m^2 (n = 3)) was 0 and the “Investigations ≥Grade 3, number of patients” value (monotherapy 40 mg/m^2 (n = 3)) was 0. For the same substance, the “Leukocytosis ≥Grade 3, number of patients” value (monotherapy 40 mg/m^2 (n = 3)) was 1, the “Metabolism and nutritional disorders ≥Grade 3, number of patients” value (monotherapy 40 mg/m^2 (n = 3)) was 1 and the “Multi-organ failure ≥Grade 3, number of patients” value (monotherapy 40 mg/m^2 (n = 3)) was 0. The “Musculoskeletal and connective tissue disorders ≥Grade 3, number of patients” value (monotherapy 40 mg/m^2 (n = 3)) was 0, the “Neoplasms benign, malignant” value (monotherapy 40 mg/m^2 (n = 3)) was 0 and the “Patients with AEs ≥Grade 3, number of patients” value (monotherapy 40 mg/m^2 (n = 3)) was 3. For the same substance, the “Penile Pain ≥Grade 3, number of patients” value (monotherapy 40 mg/m^2 (n = 3)) was 0, the “Platelet count decreased ≥Grade 3, number of patients” value (monotherapy 40 mg/m^2 (n = 3)) was 0 and the “Pneumonia ≥Grade 3, number of patients” value (monotherapy 40 mg/m^2 (n = 3)) was 0. The “Psychiatric disorders ≥Grade 3, number of patients” value (monotherapy 40 mg/m^2 (n = 3)) was 0, the “Renal and urinary disorders ≥Grade 3, number of patients” value (monotherapy 40 mg/m^2 (n = 3)) was 1 and the “Reproductive system and breast disorders ≥Grade 3, number of patients” value (monotherapy 40 mg/m^2 (n = 3)) was 0. For the same substance, the “Respiratory distress ≥Grade 3, number of patients” value (monotherapy 40 mg/m^2 (n = 3)) was 0, the “Respiratory failure ≥Grade 3, number of patients” value (monotherapy 40 mg/m^2 (n = 3)) was 0 and the “Respiratory, thoracic” value (monotherapy 40 mg/m^2 (n = 3)) was 1. The “Tumor lysis syndrome ≥Grade 3, number of patients” value (monotherapy 40 mg/m^2 (n = 3)) was 0, the “Vascular disorders ≥Grade 3, number of patients” value (monotherapy 40 mg/m^2 (n = 3)) was 0 and the “AML progression, number of patients” value (monotherapy 60 mg/m^2 (n = 3)) was 3. For the same substance, the “Abdominal Pain ≥Grade 3, number of patients” value (monotherapy 60 mg/m^2 (n = 3)) was 0, the “Acidosis ≥Grade 3, number of patients” value (monotherapy 60 mg/m^2 (n = 3)) was 0 and the “Acute kidney injury ≥Grade 3, number of patients” value (monotherapy 60 mg/m^2 (n = 3)) was 0. The “Asthenia ≥Grade 3, number of patients” value (monotherapy 60 mg/m^2 (n = 3)) was 0 and the “Back Pain ≥Grade 3, number of patients” value (monotherapy 60 mg/m^2 (n = 3)) was 0.
